Values quoted from earlier work in patent publication US20220218780A1, “Composition for Improving Vascular Endothelial Function or Improving Blood Flow in Peripheral Blood Vessels” (House Wellness Foods Corporation, priority 2018, published 2022).

System: vascular endothelial function
Conditions: diabetes rat models, continuous oral administration every day, 30 mg/kg and 300 mg/kg body weight

COc1cc(/C=C/C(=O)CC(=O)/C=C/c2ccc(O)c(OC)c2)ccc1O [curcumin]
reduction in vascular endothelial function associated with diabetes: improved
